The values below come from patent US8624027B2, “Combination therapy for treating cancer and diagnostic assays for use therein” (AbbVie Inc., priority 2005, dated 2014).

Where two headings read alike, the source gives them in different places.

One series concerns the target T1, Bcl-2 protein (Homo sapiens, UniProt P10415, DELINS35-91DVEENRTEAPEGTESE, form not given).
T1 construct: fused on or other part: A short piece of the Bcl-xL (Q07817) loop replaces Bcl-2 loop residues 35-91; The C-terminal membrane anchor is absent
The series is described as follows: Bcl-2 binding affinity, fluorescence polarization with fluorescein-labeled BAX peptide. To be noted: Wang's equation, read-out: Target Binding Affinity Ki (Bcl-2).

A further series deals with Bcl-XL protein (Homo sapiens, UniProt Q07817). The series is described as follows: Bcl-XL binding affinity, fluorescence polarization with fluorescein-labeled BAD peptide. To be noted: Wang's equation, read-out: Target Binding Affinity Ki (Bcl-XL).
Series [1] concerns NCI-H146 human small cell lung carcinoma cells. The series is described as follows: Cellular efficacy in human tumor cell line (MTS viability assay). In kind it is cell-based. To be noted: NCI-H146, 10% human serum, 48 hours. The method, then: NCI-H146 (ATCC, Manassas, Va.) human small cell lung carcinoma cells were plated 50,000 cells per well in 96-well tissue culture plates in a total volume of 100 μL tissue culture medium supplemented with 10% human serum (Invitrogen, Carlsbad, Calif.) instead of fetal bovine serum and treated with a 2-fold serial dilution of the compounds of interest from 10 μM to 0.020 μM. Each concentration was tested in duplicate at least 3 separate times. The number of viable cells following 48 hours of compound treatment was determined using the CellTiter 96® AQueous non-radioactive cell proliferation MTS assay according to manufacturer's recommendations (Promega Corp., Madison, Wis.).

A short description of series [2]: Pharmacokinetic evaluation in rat. Type of series: in vivo. To be noted: male, Sprague-Dawley, plasma; for AUC / Cmax: 5 mg/kg, oral; for AUC: Table 3, read-out: Pharmacokinetic area under the plasma concentration Curve (rat) AUC; for Cmax: Table 3, read-out: Pharmacokinetic peak plasma concentration (rat) Cmax; for AUC(0-inf): single 5 mg/kg oral dose, Table 1, read-out: Pharmacokinetic area under the plasma concentration Curve (rat) AUC0-∞. The method, then: The pharmacokinetic behavior of compounds of this disclosure was determined following a single 2 mg/kg intravenous or 5 mg/kg oral dose in male Sprague-Dawley derived rats (n=3 per group). The compounds were prepared as 2 mg/mL solution in a 10% DMSO in PEG-400 formulation for both oral and intravenous administration. The 1 mL/kg intravenous dose was administered as a slow bolus (about 1-2 minutes) in the jugular vein of a rat under light ether anesthetic. The oral dose was administered by gavage. Serial blood samples were obtained from a tail vein of each rat prior 0.1 (IV only), 0.25, 0.5, 1, 1.5, 2, 3, 4, 6, 8 and 24 hours after dosing. The heparinized samples were thoroughly mixed and placed in an ice bath. Plasma was separated by centrifugation and stored frozen prior to analysis.
The compounds of interest were separated from the plasma using protein precipitation with acetonitrile. A plasma (100-200 μL, sample or spiked standard) aliquot was combined with 50 μL of internal standard (structurally related analog prepared in acetonitrile) and 1 ml acetonitrile in a 96-well polypropylene deep well plate. The plates were vortexed for 30 seconds followed by centrifugation (3500 rpm×15 minutes, 4° C.). In an automated manner, the supernatant was transferred to a clean 96-well plate. The samples were evaporated to near dryness on a Micro-Vap™ under a stream of dry nitrogen over low heat (˜37° C.). The samples were reconstituted vortexing with 0.2 mL 5% DMSO in acetonitrile. A 0.1-0.2 ml aliquot of acetonitrile: 0.1% trifluoroacetic acid (20:80, by volume) was added to each well, followed by an additional 30 second vortexing. The plates were centrifuged (3500 rpm×15 minutes, 4° C.) prior to HPLC-MS/MS analysis. Samples were analyzed simultaneously with spiked plasma standards. All samples from each study were analyzed as a single batch on the LC-MS/MS.
The compounds of interest and the internal standard were separated from each other and co-extracted contaminants on a 50×3 mm Keystone Betasil CN 5 μm column with an acetonitrile: 0.1% trifluoroacetic acid mobile phase (50:50, by volume) at a flow rate of 0.7 ml/min. Analysis was performed on a Sciex API 300™ Biomolecular Mass Analyzer using a heated nebulizer interface. Peak areas of the title compounds and internal standards were determined using the Sciex MacQuan™ software. Calibration curves were derived from peak area ratio (parent drug/internal standard) of the spiked rat plasma standards using least squares linear regression of the ratio versus the theoretical concentration. The methods were generally linear over the range of the standard curve (correlation coefficients >0.99) with an estimated quantitation limit of 0.01 μg/mL. The plasma concentration data for each animal were submitted to multi-exponential curve fitting using WinNonlin. The area under the plasma concentration-time curve from 0 to t hours (time of the last measurable plasma concentration) after dosing (AUC0-t) was calculated using the linear trapezoidal rule for the plasma concentration-time profiles. The residual area extrapolated to infinity, determined as the final measured plasma concentration (Ct) divided by the terminal elimination rate constant (β), was added to AUC0-t to produce the total area under the curve (AUC0-∞). Ki values shown in the tables below were determined using Wang's equation (Wang Z X., An Exact Mathematical Expression For Describing Competitive Binding Of Two Different Ligands To A Protein Molecule. FEBS Lett. 1995; 360:111-4)).

[3] abbreviates: Table 1, read-out: NCI-H146 Cellular Efficacy EC50.
Setting [4] is: Table 3, read-out: NCI-H146 Cellular Efficacy H146 EC50.

T1 sequence (P10415 with tags, fused parts or gaps with the stated changes): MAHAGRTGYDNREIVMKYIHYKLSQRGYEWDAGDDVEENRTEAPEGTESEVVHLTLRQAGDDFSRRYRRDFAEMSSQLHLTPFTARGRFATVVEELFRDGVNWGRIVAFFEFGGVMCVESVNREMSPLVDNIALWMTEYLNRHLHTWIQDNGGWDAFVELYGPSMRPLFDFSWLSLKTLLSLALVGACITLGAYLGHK
Bcl-XL protein, sequence (Q07817 with tags, fused parts or gaps DEL45-84): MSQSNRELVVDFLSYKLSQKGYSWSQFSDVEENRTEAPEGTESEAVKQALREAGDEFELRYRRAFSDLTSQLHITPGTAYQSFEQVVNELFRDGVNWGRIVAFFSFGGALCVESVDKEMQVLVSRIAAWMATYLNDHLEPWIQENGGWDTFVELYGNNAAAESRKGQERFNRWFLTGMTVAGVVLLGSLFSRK
Source text for Bcl-2 protein: Binding affinity of compounds having formula (II) to Bcl-2 protein is indicia of their inhibition of the activity of this protein.

As to `O=C(NS(=O)(=O)c1ccc(N[C@H](CCN2CCOCC2)CSc2ccccc2)c(S(=O)(=O)C(F)(F)F)c1)c1ccc(N2CCN(CC3=C(c4ccc(Cl)cc4)CCCC3)CC2)cc1` [Example 7, N-(4-(4-((2-(4-chlorophenyl)cyclohex-1-en-1-yl)methyl)piperazin-1-yl)benzoyl)-4-(((1R)-3-(morpholin-4-yl)-1-((phenylsulfanyl)methyl)propyl)amino)-3-((trifluoromethyl)sulfonyl)benzenesulfonamide], the Ki at Bcl-2 protein and at Bcl-XL protein was at most 0.001 µM each time. Also, the EC50 in series [1] (setting [3]) turned out to be 0.0589 µM; in series [1] (setting [4]), 0.059 µM. Besides, in series [2], the AUC is 3.87 µM·h. Also, in series [2], the Cmax amounted to 518 nM. Moreover, in series [2], the AUC(0-inf) came to 3.87 µM·h.

For `O=C(NS(=O)(=O)c1ccc(N[C@H](CCN2C3CCC2CC3)CSc2ccccc2)c(S(=O)(=O)C(F)(F)F)c1)c1ccc(N2CCN(CC3=C(c4ccc(Cl)cc4)CCCC3)CC2)cc1` [Example 8, 4-(((1R)-3-(7-azabicyclo[2.2.1]hept-7-yl)-1-((phenylsulfanyl)methyl)propyl)amino)-N-(4-(4-((2-(4-chlorophenyl)cyclohex-1-en-1-yl)methyl)piperazin-1-yl)benzoyl)-3-((trifluoromethyl)sulfonyl)benzenesulfonamide], the Ki on Bcl-2 protein and on Bcl-XL protein was at most 0.001 µM each time. Also, the EC50 in series [1] (setting [3]) was 0.0212 µM; in series [1] (setting [4]) it was 0.021 µM. Besides, in series [2], the AUC worked out at 1.1 µM·h. In addition, the Cmax in series [2] amounted to 71 nM. Also, the AUC(0-inf) in series [2] came out at 1.1 µM·h.

`O=C(NS(=O)(=O)c1ccc(N[C@H](CCN2CC3CC2CO3)CSc2ccccc2)c(S(=O)(=O)C(F)(F)F)c1)c1ccc(N2CCN(CC3=C(c4ccc(Cl)cc4)CCCC3)CC2)cc1` (stereo partly drawn) [Example 9, N-(4-(4-((2-(4-chlorophenyl)cyclohex-1-en-1-yl)methyl)piperazin-1-yl)benzoyl)-4-(((1R)-3-(2-oxa-5-azabicyclo[2.2.1]hept-5-yl)-1-((phenylsulfanyl)methyl)propyl)amino)-3-((trifluoromethyl)sulfonyl)benzenesulfonamide]: the Ki at Bcl-2 protein is at most 0.001 µM. Besides, the Ki at Bcl-XL protein is at most 0.001 µM. For the same compound, the EC50 in series [1] (setting [3]) amounted to 0.0137 µM. Moreover, the EC50 in series [1] (setting [4]) was 0.014 µM. In addition, in series [2], the AUC was determined as 1.88 µM·h, the Cmax came out at 156 nM and the AUC(0-inf) is 1.88 µM·h.

With `CC1(C)CCC(c2ccc(Cl)cc2)=C(CN2CCN(c3ccc(C(=O)NS(=O)(=O)c4ccc(N[C@H](CCN5CC6CC5CO6)CSc5ccccc5)c(S(=O)(=O)C(F)(F)F)c4)cc3)CC2)C1` (stereo partly drawn) [Example 10, N-(4-(4-((2-(4-chlorophenyl)-5,5-dimethylcyclohex-1-en-1-yl)methyl)piperazin-1-yl)benzoyl)-4-(((1R)-3-(2-oxa-5-azabicyclo[2.2.1]hept-5-yl)-1-((phenylsulfanyl)methyl)propyl)amino)-3-((trifluoromethyl)sulfonyl)benzenesulfonamide], the Ki on Bcl-2 protein and on Bcl-XL protein was at most 0.001 µM throughout. For the same compound, the EC50 in series [1] (setting [3]) amounted to 0.0342 µM. Moreover, the AUC(0-inf) in series [2] was 2.48 µM·h.

As for `CC1(C)CCC(c2ccc(Cl)cc2)=C(CN2CCN(c3ccc(C(=O)NS(=O)(=O)c4ccc(N[C@H](CCN5CC6CC5CO6)CSc5ccccc5)c(S(=O)(=O)C(F)(F)Cl)c4)cc3)CC2)C1` (stereo partly drawn) [Example 11, 3-((chloro(difluoro)methyl)sulfonyl)-N-(4-(4-((2-(4-chlorophenyl)-5,5-dimethylcyclohex-1-en-1-yl)methyl)piperazin-1-yl)benzoyl)-4-(((1R)-3-(2-oxa-5-azabicyclo[2.2.1]hept-5-yl)-1-((phenylsulfanyl)methyl)propyl)amino)benzenesulfonamide], the Ki on Bcl-2 protein was at most 0.002 µM; at Bcl-XL protein, at most 0.003 µM. For the same compound, the EC50 in series [1] (setting [3]) worked out at 0.0206 µM. Besides, the AUC(0-inf) in series [2] is 2.4 µM·h.
